From patent US20220288057A1, “CONJOINT THERAPY FOR TREATING SEIZURE DISORDERS” (XENON PHARMACEUTICALS INC., priority 2021, published 2022)
Values joined by “and” are separate entries in the source; they are usually repeats but may differ in a detail not shown here. Equal values may be shown once. Read-outs that look alike come from different tables or passages of the source. Marks after values point to notes of the source that are not given here.

What was measured:
[1] = Plasma and brain concentrations after MES testing (UHPLC-ESI-MS/MS); details: for concentration at 2 h: mouse, in vivo;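 on all read-outs here: brain and plasma were sampled from mice right after the efficacy test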
[2] = test system: 6 Hz psychomotor seizures in CF-1 mice; assay: Mouse 6 Hz psychomotor seizure assay (34 milliampere, 3 s); assay type: in vivo
Method: It was evaluated whether the combination of both compounds is favorable or unfavorable for efficacy by dosing Compound A and Levetiracetam alone and in combination, each at a dose that produces sub-maximal efficacy on its own. […] Plasma and brain samples were analyzed to gain an understanding of how the combination of Compound A and Levetiracetam may affect pharmacokinetics and pharmacodynamics. […] 6 Hz Psychomotor Seizure Assay: […] The animal was then securely restrained and a pair of electrodes was applied to the eyes (Electro Convulsive Therapy Unit 57800, Ugo Basile). […] Data Processing and Analysis: Statistical data analysis was performed using GraphPad Prism (version 8.2.1). Dose-response data was analyzed using a Kruskal-Wallis test, followed by Dunn's multiple comparisons. […] Dose- and concentration-response curves were generated using the Hill Langmuir equation: […]

CF-1 mice = assay: Observation for clinical signs in 6 Hz studies; assay type: in vivo, mouse; details: Compound A 8 mg/kg PO, Study 3A
Method: Any qualitative changes from normal behavior were recorded.

[3] = analyte Compound A, 0.25 mg/kg + 2 mg/kg Phenytoin
[4] = analyte Compound A, 0.75 mg/kg + 2 mg/kg Phenytoin
[5] = analyte Compound A, 1 mg/kg + 2 mg/kg Phenytoin
[6] = analyte Compound A, 1 mg/kg PO + 100 mg/kg Valproic Acid IP
[7] = analyte Compound A, 2.5 mg/kg + 2 mg/kg Phenytoin

## Cc1cc(N2CCc3cc(F)ccc3C2)cc(C)c1NC(=O)CC(C)(C)C [Compound A, N-[4-(6-fluoro-3,4-dihydro-1H-isoquinolin-2-yl)-2,6-dimethylphenyl]-3,3-dimethylbutanamide]
[1]; [3]
  Brain concentration, Mean: 50 nM
  Plasma concentration, Mean: 0.02 μM and 5.6 ng/mL
[1]; [4]
  Brain concentration, Mean: 150 nM
  Plasma concentration, Mean: 0.04 μM and 16.0 ng/mL
[1]; [5]
  Brain concentration, Mean: 100 nM
  Plasma concentration, Mean: 0.05 μM and 19.0 ng/mL
[1]; [6]
  Brain concentration, Mean: 97 nM
  Plasma concentration, Mean: 0.042 μM and 15 ng/mL
[1]; [7]
  Brain concentration, Mean: 510 nM
  Plasma concentration, Mean: 58.4 ng/mL and 0.16 μM
[1]; 1 mg/kg, plasma concentration, Compound A 1 mg/kg, mean±SEM, n=15
  concentration at 2 h: 66 ± 14 nM
[1]; Brain concentration, Mean, analyte Compound A, 0.25 mg/kg + 2 mg/kg Phenytoin
  concentration at 2 h: 50 nM and 18.4 ng/g
[1]; Brain concentration, Mean, analyte Compound A, 0.75 mg/kg + 2 mg/kg Phenytoin
  concentration at 2 h: 150 nM and 56.7 ng/g
[1]; Brain concentration, Mean, analyte Compound A, 1 mg/kg + 2 mg/kg Phenytoin
  concentration at 2 h: 100 nM and 37 ng/g
[1]; Brain concentration, Mean, analyte Compound A, 1 mg/kg PO + 100 mg/kg Valproic Acid IP
  concentration at 2 h: 97 nM and 36 ng/g
[1]; Brain concentration, Mean, analyte Compound A, 2.5 mg/kg + 2 mg/kg Phenytoin
  concentration at 2 h: 510 nM and 186 ng/g
[1]; Plasma concentration, Mean, analyte Compound A, 0.25 mg/kg + 2 mg/kg Phenytoin
  concentration at 2 h: 20 nM and 5.6 ng/mL
[1]; Plasma concentration, Mean, analyte Compound A, 0.75 mg/kg + 2 mg/kg Phenytoin
  concentration at 2 h: 40 nM and 16 ng/mL
[1]; Plasma concentration, Mean, analyte Compound A, 1 mg/kg + 2 mg/kg Phenytoin
  concentration at 2 h: 50 nM and 19 ng/mL
[1]; Plasma concentration, Mean, analyte Compound A, 1 mg/kg PO + 100 mg/kg Valproic Acid IP
  concentration at 2 h: 42 nM and 15 ng/mL
[1]; Plasma concentration, Mean, analyte Compound A, 2.5 mg/kg + 2 mg/kg Phenytoin
  concentration at 2 h: 160 nM and 58.4 ng/mL
[1]; mean total brain concentration, analyte Compound A, 1 mg/kg PO + Valproic Acid 30 mg/kg IP
  concentration at 2 h: 75 nM and 28 ng/g
[1]; mean total brain concentration, analyte Compound A, 1 mg/kg PO + Valproic Acid 56 mg/kg IP
  concentration at 2 h: 117 nM and 43 ng/g
[1]; mean total plasma concentration, analyte Compound A, 1 mg/kg PO + Valproic Acid 30 mg/kg IP
  concentration at 2 h: 38 nM and 14 ng/mL
[1]; mean total plasma concentration, analyte Compound A, 1 mg/kg PO + Valproic Acid 56 mg/kg IP
  concentration at 2 h: 18 ng/mL and 50 nM
[1]; po, 0.25 mg/kg, Brain concentration, Mean, Compound A 0.25 mg/kg PO 2 h alone (phenytoin study)
  concentration at 2 h: 40 nM and 14.8 ng/g
[1]; po, 0.25 mg/kg, Plasma concentration, Mean, Compound A 0.25 mg/kg PO 2 h alone (phenytoin study)
  concentration at 2 h: 10 nM and 4.3 ng/mL
[1]; po, 0.75 mg/kg, Brain concentration, Mean, Compound A 0.75 mg/kg PO 2 h alone (phenytoin study)
  concentration at 2 h: 120 nM and 43.8 ng/g
[1]; po, 0.75 mg/kg, Plasma concentration, Mean, Compound A 0.75 mg/kg PO 2 h alone (phenytoin study)
  concentration at 2 h: 11.7 ng/mL and 30 nM
[1]; po, 1 mg/kg, Brain concentration, Mean, Compound A 1 mg/kg PO 2 h alone (levetiracetam study)
  concentration at 2 h: 60 nM and 20.9 ng/g
[1]; po, 1 mg/kg, Brain concentration, Mean, Compound A 1 mg/kg PO 2 h alone (phenytoin study)
  concentration at 2 h: 100 nM and 35 ng/g
[1]; po, 1 mg/kg, Brain concentration, Mean, Compound A 1 mg/kg PO 2 h alone (valproic acid study)
  concentration at 2 h: 160 nM and 59 ng/g
[1]; po, 1 mg/kg, Plasma concentration, Mean, Compound A 1 mg/kg PO 2 h alone (levetiracetam study)
  concentration at 2 h: 30 nM and 11.1 ng/mL
[1]; po, 1 mg/kg, Plasma concentration, Mean, Compound A 1 mg/kg PO 2 h alone (phenytoin study)
  concentration at 2 h: 50 nM and 17 ng/mL
[1]; po, 1 mg/kg, Plasma concentration, Mean, Compound A 1 mg/kg PO 2 h alone (valproic acid study)
  concentration at 2 h: 66 nM and 24 ng/mL
[1]; po, 2.5 mg/kg, Brain concentration, Mean, Compound A 2.5 mg/kg PO 2 h alone (phenytoin study)
  concentration at 2 h: 390 nM and 144 ng/g
[1]; po, 2.5 mg/kg, Plasma concentration, Mean, Compound A 2.5 mg/kg PO 2 h alone (phenytoin study)
  concentration at 2 h: 120 nM and 45.1 ng/mL
[2]; Compound A PO 1 h, Study 3A dose response curve
  ED20: 4 mg/kg and 4.13 mg/kg
[2]; Mus musculus, Compound A PO 1 h, Study 3A dose response curve
  ED50: 6.48 mg/kg
[2]; Mus musculus, Compound A PO 1 h, Study 3A, read-out: brain EC50
  EC50: 540 nM
[2]; Mus musculus, Compound A PO 1 h, Study 3A, read-out: plasma EC50
  EC50: 350 nM
[2]; Studies 3B+3C combined, Compound A 4 mg/kg PO 1 h alone
  Fraction Seizing: 13/14*
[2]; Study 3A, Compound A 1 mg/kg PO, 1 h
  Fraction Seizing: 8/8
[2]; Study 3A, Compound A 3 mg/kg PO, 1 h
  Fraction Seizing: 8/8
[2]; Study 3A, Compound A 5 mg/kg PO, 1 h
  Fraction Seizing: 5/8
[2]; Study 3A, Compound A 8 mg/kg PO, 1 h
  Fraction Seizing: 3/8
[2]; Study 3B, Compound A 4 mg/kg PO 1 h alone
  Fraction Seizing: 8/8
[2]; Study 3C, Compound A 4 mg/kg PO 1 h alone
  Fraction Seizing: 5/6*
[2]; Study 3C, Compound A 4 mg/kg PO alone
  animals protected from seizing: 1/7
CF-1 mice
  brain concentration of the one animal that showed tremor and was cold to the touch: 1650 nM
  plasma concentration of the one animal that showed tremor and was cold to the touch: 1160 nM
